The results in this text go back to article PMC12275099, “VX-445 (elexacaftor) inhibits chloride secretion across human bronchial epithelial cells by directly blocking KCa3.1 channels” (PNAS Nexus, 2025).

“And” between values parts separate entries of the source, which are not always exact repeats. Identical values can stand only once.

As a reminder, the Hill coefficient is a measure of the steepness of the concentration-response curve. A word on the inhibition: it is the percentage by which the read-out fell short of the control.

For this test, the target named is T1, KCa3.1 (Homo sapiens, UniProt O15554).
T1 construct: expressed in transfected cells
Nature of the test: Excised inside-out patch-clamp on HEK-KCa3.1. It counts as biochemical. The note with it: for relative remaining current: Fig 3I single experiments. As to the method:
Our Isc results are consistent with VX-445 inhibiting KCa3.1 in HBEs. To directly assess this possibility, we initially carried out whole-cell patch-clamp studies on undifferentiated HBEs. […] Upon application of 10 µM VX-445, a majority of this current was inhibited, averaging 87 ± 4% (n = 3, P < 0.005; Fig. 3B). A summary of the current–voltage (I–V) relationship—normalized to cell capacitance—is shown in Fig. 3C, which also includes the whole-cell I–V in the presence of Tram-34. […] To ensure isolation of KCa3.1 currents and to more fully characterize this VX-445-dependent inhibition of KCa3.1, we utilized HEK cells heterologously expressing KCa3.1 (HEK-KCa3.1). Initially, we confirmed our results from HBEs, using whole-cell recordings, as above. […] In seven experiments, this inhibition averaged 58 ± 7% (P < 0.005). […] It is well recognized that drugs are carried to their targets in the blood bound to albumin, which ranges from 3.4 to 5.4%. Thus, we determined whether VX-445 (10 µM) would inhibit KCa3.1 expressed in HEK cells in the presence of 3.4% albumin. In four experiments, VX-445 inhibited an average of 51 ± 17% of the whole-cell KCa3.1 current, which is not different from that observed in the absence of albumin. To confirm the direct effect of VX-445 on KCa3.1, we utilized the excised, inside-out patch-clamp technique. The patch was then exposed to DCEBIO (100 µM) to further activate the channels ([34–37])—analogous to our Isc studies in HBEs. […] In three experiments, VX-445 inhibited an average of 63 ± 6% of the KCa3.1 current. Based on these experiments, we determined the apparent inhibitory constant, Ki for VX-445. For these experiments, patches were excised into saturating Ca^2+ (3 µM) to ensure maximal KCa3.1 activation. These studies were carried out in the absence of DCEBIO to eliminate the possibility that the inhibition observed was due to competition for the DCEBIO-binding site.
HEK cells stably expressing KCa3.1 (IK1, SK4), KCa2.3 (SK3), and KCa2.2 (SK2) were generated and cultured as previously described by us ([37], [66–71]).
HEK cells expressing the channel of interest were plated onto poly-L-lysine-coated glass coverslips 1–2 days prior to patch-clamp analysis. Electrophysiological recordings in the excised, inside-out, and whole-cell patch-clamp configurations were performed as recently described ([14]). For excised patch-clamp recordings, the pipette solution contained (in mM): 140 K-gluconate, 5 KCl, 1 CaCl2, 1 MgCl2, and 10 HEPES. The pH was adjusted to 7.2 with KOH. The bath solution contained (in mM): 145 K-gluconate, 5 KCl, 1.3 MgCl2, 10 HEPES, and 1 EGTA. Sufficient CaCl2 was added to obtain the desired free Ca^2+ concentration at a pH of 7.2 (adjusted with KOH). When recording KCa3.1 channels, ATP (300 µM) was added to the bath to diminish channel rundown ([73]). All recordings were carried out at a voltage of −100 mV, referenced to the extracellular compartment, as is standard. The apparent Ki and Hill coefficient for each CFTR corrector on KCa3.1, KCa2.3, and KCa2.2 were determined during a continuous recording by step-wise addition of increasing concentrations of compound and fitting the resultant relative remaining current to a Hill equation (Prism v. 10.1.0). The zero current level was determined by the addition of a 0 Ca^2+ solution (zero-added Ca^2+ plus 1 mM EGTA) at the end of the experiment. In the case of KCa3.1, TRAM-34, a known inhibitor of KCa3.1 ([45]), was used to confirm expression of the channel. For whole-cell experiments, pipettes contained (in mM): 145 K-gluconate, 10 EGTA, 7.5 CaCl2, 2 MgCl2, 3 mM NaATP, and 10 HEPES. The bath solution contained (in mM): 140 K-gluconate, 5 KCl, 1.0 MgCl2, 10 HEPES, and 2 CaCl2. Current–voltage relationships were determined by stepping from a holding potential of −80 mV to +80 mV in 20 mV increments for 400 ms. […]
(In general: The patch-clamp technique gives a direct electrical read-out from membranes.)

Turning to `Cc1nn(C)cc1S(=O)(=O)NC(=O)c1ccc(-n2ccc(OCC(C)(C)C(F)(F)F)n2)nc1N1C[C@@H](C)CC1(C)C` [VX-445, elexacaftor], the Hill coefficient (3 µM free Ca2+, absence of DCEBIO) is 1.2. Under “3 µM free Ca2+, absence of DCEBIO, Hill fit, n = 4, read-out: apparent Ki”, the Ki worked out at 8 ± 2 µM. Moreover, the inhibition at 10 µM (10 µM compound after DCEBIO 100 µM, 1 µM free Ca2+, three experiments, read-out: inhibition of KCa3.1 current in excised patch) worked out at 63 ± 6%. Also, under “KCa3.1 versus KCa2.2 and KCa2.3”, the “selectivity among KCNN gene family members” value was “exhibits selectivity for KCa3.1 over KCa2.x channels”. Also, the relative remaining current is 100 ([VX-445] 0.1); 86 and 95 and 100 and 83 ([VX-445] 1); 68 and 80 and 93 and 62 ([VX-445] 3).
